Results published in ChEMBL document CHEMBL1201862, “PubChem BioAssay data set” (2004).
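96-well plates; 48 h exposure; 5 concentrations. Endpoints by linear interpolation between flanking doses. Not reached: highest tested concentration assigned. At the GI50, growth is halved.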 Calls of active or inactive are those of the source. Cut-off read from the data, not from the text of the source: active = GI50 up to about 1.1 µM and inactive = higher.

Key:
Experiment in all cases: growth of human tumour cells (NCI), 48 h
HCC 2998 = test system: HCC 2998
U-251 = test system: U-251
Hs-578T = test system: Hs-578T
OVCAR-5 = test system: OVCAR-5
A549 = test system: A549
NCI-H23 = test system: NCI-H23
MDA-N = test system: MDA-N
CCRF-CEM = test system: CCRF-CEM
IGROV-1 = test system: IGROV-1
HCT-15 = test system: HCT-15
OVCAR-3 = test system: OVCAR-3
KM12 = test system: KM12
CAKI-1 = test system: CAKI-1
SNB-75 = test system: SNB-75
SW-620 = test system: SW-620
OVCAR-8 = test system: OVCAR-8
HT-29 = test system: HT-29
MDA-MB-435 = test system: MDA-MB-435
SK-OV-3 = test system: SK-OV-3
NCI/ADR-RES = test system: NCI/ADR-RES
UACC-62 = test system: UACC-62
SK-MEL-28 = test system: SK-MEL-28
UO-31 = test system: UO-31
COLO 205 = test system: COLO 205
SNB-19 = test system: SNB-19
BT-549 = test system: BT-549
OVCAR-4 = test system: OVCAR-4
NCI-H460 = test system: NCI-H460
MDA-MB-231 = test system: MDA-MB-231
NCI-H522 = test system: NCI-H522
HCT-116 = test system: HCT-116
ACHN = test system: ACHN
DU-145 = test system: DU-145
UACC-257 = test system: UACC-257
Malme-3M = test system: Malme-3M
SF-268 = test system: SF-268
T47D = test system: T47D
M14 = test system: M14
HOP-62 = test system: HOP-62
786-0 = test system: 786-0
MCF7 = test system: MCF7
SK-MEL-2 = test system: SK-MEL-2
TK-10 = test system: TK-10
MOLT-4 = test system: MOLT-4
SN12C = test system: SN12C
NCI-H226 = test system: NCI-H226
A498 = test system: A498
SF-295 = test system: SF-295
SK-MEL-5 = test system: SK-MEL-5
EKVX = test system: EKVX
HL-60 = test system: HL-60
RPMI-8226 = test system: RPMI-8226
PC-3 = test system: PC-3
RXF 393 = test system: RXF 393
HOP-92 = test system: HOP-92
K562 = test system: K562
SR = test system: SR
SF-539 = test system: SF-539
LOX IMVI = test system: LOX IMVI

With `CCCCSC1=N/C(=C\c2ccco2)C(=O)N1` the GI50 (HCC 2998) was 30 µM (inactive), the GI50 (U-251) was 74.6 µM (inactive) and the GI50 (Hs-578T) was 29.9 µM (inactive). The GI50 (OVCAR-5) was > 100 µM (inactive), the GI50 (A549) was 43.6 µM (inactive) and the GI50 (NCI-H23) was 36.3 µM (inactive). The GI50 (MDA-N) was 42.4 µM (inactive), the GI50 (CCRF-CEM) was 24.2 µM (inactive) and the GI50 (IGROV-1) was 36.6 µM (inactive). The GI50 (HCT-15) was 34.6 µM, the GI50 (OVCAR-3) was 48.4 µM (inactive) and the GI50 (KM12) was 37.6 µM (inactive). For the same compound, the GI50 (CAKI-1) was 74.5 µM (inactive), the GI50 (SNB-75) was 25.9 µM (inactive) and the GI50 (SW-620) was 35.8 µM (inactive). For the same compound, the GI50 (OVCAR-8) was 44.1 µM (inactive), the GI50 (HT-29) was 47.6 µM (inactive) and the GI50 (MDA-MB-435) was 36.7 µM (inactive). The GI50 (SK-OV-3) was > 100 µM (inactive), the GI50 (NCI/ADR-RES) was 31.9 µM (inactive) and the GI50 (UACC-62) was 42.1 µM (inactive). The GI50 (SK-MEL-28) was 42.5 µM (inactive), the GI50 (UO-31) was 54 µM (inactive) and the GI50 (COLO 205) was 26.1 µM (inactive). The GI50 (SNB-19) was 63.8 µM (inactive), the GI50 (BT-549) was 33.2 µM (inactive) and the GI50 (OVCAR-4) was 60.1 µM (inactive). For the same compound, the GI50 (NCI-H460) was 39.5 µM (inactive), the GI50 (MDA-MB-231) was 99.8 µM (inactive) and the GI50 (NCI-H522) was 28.9 µM (inactive). The GI50 (HCT-116) was 56.1 µM (inactive), the GI50 (ACHN) was > 100 µM (inactive) and the GI50 (DU-145) was 67.8 µM (inactive). For the same compound, the GI50 (UACC-257) was 34.8 µM (inactive), the GI50 (Malme-3M) was 29.2 µM (inactive) and the GI50 (SF-268) was 41.3 µM (inactive). For the same compound, the GI50 (T47D) was 16.5 µM (inactive), the GI50 (M14) was 53.8 µM (inactive) and the GI50 (HOP-62) was > 100 µM (inactive). The GI50 (786-0) was 87.3 µM (inactive), the GI50 (MCF7) was 0.687 µM (active) and the GI50 (SK-MEL-2) was 54.8 µM (inactive). The GI50 (TK-10) was 59.6 µM (inactive), the GI50 (MOLT-4) was 36.1 µM (inactive) and the GI50 (SN12C) was 99.1 µM (inactive). The GI50 (NCI-H226) was 51.5 µM (inactive), the GI50 (A498) was 24.2 µM (inactive) and the GI50 (SF-295) was 45.5 µM (inactive). For the same compound, the GI50 (SK-MEL-5) was 35.4 µM (inactive), the GI50 (EKVX) was 36.6 µM (inactive) and the GI50 (HL-60) was 18.2 µM (inactive). The GI50 (RPMI-8226) was 34.1 µM (inactive), the GI50 (PC-3) was 46.1 µM (inactive) and the GI50 (RXF 393) was 12.1 µM (inactive).
In the case of `COc1cc(C(c2ccccc2)N2C(=O)CC[C@H]2C(=O)O)cc(OC)c1OC` (stereo partly specified), the GI50 (HCC 2998) is reported as > 100 µM (inactive), the GI50 (U-251) is reported as > 100 µM (inactive) and the GI50 (Hs-578T) is reported as > 100 µM (inactive). For the same compound, the GI50 (OVCAR-5) was > 100 µM (inactive), the GI50 (A549) was > 100 µM (inactive) and the GI50 (HOP-92) was > 100 µM (inactive). For the same compound, the GI50 (NCI-H23) was > 100 µM (inactive), the GI50 (MDA-N) was > 100 µM (inactive) and the GI50 (CCRF-CEM) was > 100 µM (inactive). For the same compound, the GI50 (IGROV-1) was > 100 µM (inactive), the GI50 (HCT-15) was > 100 µM and the GI50 (OVCAR-3) was > 100 µM (inactive). For the same compound, the GI50 (KM12) was > 100 µM (inactive), the GI50 (CAKI-1) was > 100 µM (inactive) and the GI50 (SNB-75) was > 100 µM (inactive). The GI50 (SW-620) was > 100 µM (inactive), the GI50 (OVCAR-8) was > 100 µM (inactive) and the GI50 (HT-29) was > 100 µM (inactive). The GI50 (MDA-MB-435) was > 100 µM (inactive), the GI50 (SK-OV-3) was > 100 µM (inactive) and the GI50 (NCI/ADR-RES) was > 100 µM (inactive). For the same compound, the GI50 (UACC-62) was > 100 µM (inactive), the GI50 (SK-MEL-28) was > 100 µM (inactive) and the GI50 (UO-31) was > 100 µM (inactive). For the same compound, the GI50 (COLO 205) was > 100 µM (inactive), the GI50 (SNB-19) was > 100 µM (inactive) and the GI50 (BT-549) was > 100 µM (inactive). The GI50 (OVCAR-4) was > 100 µM (inactive), the GI50 (NCI-H460) was > 100 µM (inactive) and the GI50 (NCI-H522) was > 100 µM (inactive). The GI50 (HCT-116) was > 100 µM (inactive), the GI50 (K562) was > 100 µM (inactive) and the GI50 (ACHN) was > 100 µM (inactive). For the same compound, the GI50 (DU-145) was > 100 µM (inactive), the GI50 (UACC-257) was > 100 µM (inactive) and the GI50 (Malme-3M) was > 100 µM (inactive). The GI50 (SF-268) was > 100 µM (inactive), the GI50 (T47D) was > 100 µM (inactive) and the GI50 (M14) was > 100 µM (inactive). The GI50 (HOP-62) was > 100 µM (inactive), the GI50 (786-0) was > 100 µM (inactive) and the GI50 (MCF7) was > 100 µM (inactive). The GI50 (SR) was > 100 µM (inactive), the GI50 (SF-539) was > 100 µM (inactive) and the GI50 (SK-MEL-2) was > 100 µM (inactive). For the same compound, the GI50 (TK-10) was > 100 µM (inactive), the GI50 (MOLT-4) was > 100 µM (inactive) and the GI50 (SN12C) was > 100 µM (inactive). For the same compound, the GI50 (NCI-H226) was > 100 µM (inactive), the GI50 (A498) was > 100 µM (inactive) and the GI50 (SF-295) was > 100 µM (inactive). The GI50 (SK-MEL-5) was > 100 µM (inactive), the GI50 (EKVX) was > 100 µM (inactive) and the GI50 (HL-60) was > 100 µM (inactive). For the same compound, the GI50 (RPMI-8226) was > 100 µM (inactive), the GI50 (PC-3) was > 100 µM (inactive) and the GI50 (LOX IMVI) was > 100 µM (inactive).
